The results in this text go back to article PMC9512702 (Nature Chemical Biology, 2022).

Data set [1] in a line: Solubility measurement (peptide concentration in saturated solution). The settings on record: sodium-phosphate buffer, pH 7.4, aqueous buffer, thermodynamic from solid.
Protocol: Approximately 2 mg of each peptide was added to 500 µl of buffer in 1.5-ml Eppendorf tubes. The tubes were shaken at 25 °C for 2 h on a 900 r.p.m. vortex shaker. The samples were centrifuged at 12,000 r.p.m. for 15 min to remove the precipitate and the supernatant was analyzed by ultraviolet–visible light (UV–vis) spectrometry.
In data set [2] the target is SARS-CoV-2 RBD binding to immobilized ACE2 (Severe acute respiratory syndrome coronavirus 2, UniProt P0DTC2). Kind of data set: biochemical.
In a further data set the target is SARS-CoV-2 RBD (Severe acute respiratory syndrome coronavirus 2, UniProt P0DTC2). Kind of data set: biochemical. The format is binding. The settings on record: for Kd: KD (direct binding to RBD); for kon: read-out: ka.

Converted amounts (≈) assume the structure as drawn. Where a SMILES comes first, the peptide text is derived from it. [ ]: non-standard residue; d: D form. Phe(3,4-F2) = N[C@@H](Cc1ccc(F)c(F)c1)C(=O)O; Cha = N[C@@H](CC1CCCCC1)C(=O)O; Aib = CC(C)(N)C(=O)O

For the compound `CC[C@H](C)[C@H](NC(=O)[C@H](CC(C)C)NC(=O)[C@H](CC(=O)O)NC(=O)[C@H](CO)NC(=O)[C@@H](NC(=O)[C@H](CCCNC(=N)N)NC(=O)[C@H](CCSC)NC(=O)[C@H](CO)NC(=O)[C@H](C)NC(=O)[C@H](CCC(=O)O)NC(=O)[C@H](C)NC(=O)[C@H](Cc1c[nH]cn1)NC(=O)CNC(=O)[C@H](CC(C)C)NC(=O)[C@H](CCC(=O)O)NC(=O)[C@H](CC(=O)O)NC(=O)[C@H](CC(C)C)NC(=O)[C@H](CC(C)C)NC(=O)[C@H](CCCNC(=N)N)NC(=O)[C@H](CCSC)NC(=O)[C@@H](NC(=O)[C@H](CCC(=O)O)NC(=O)[C@H](Cc1ccc(O)cc1)NC(=O)[C@@H](NC(=O)[C@H](CCCCN)NC(=O)[C@H](CCC(N)=O)NC(=O)[C@H](CC(C)C)NC(=O)[C@@H](NC(=O)[C@H](Cc1c[nH]c2ccccc12)NC(=O)[C@H](CCC(=O)O)NC(=O)[C@H](CCCCN)NC(=O)[C@@H](N)CC(=O)O)[C@@H](C)CC)[C@@H](C)CC)[C@@H](C)CC)C(C)C)C(=O)N[C@@H](Cc1ccc(O)cc1)C(=O)N[C@@H](CCC(=O)O)C(=O)N[C@@H](Cc1ccccc1)C(=O)N[C@@H](CCSC)C(=O)N[C@@H](CCCCN)C(=O)N[C@@H](CCCCN)C(N)=O` [SIH-1], the solubility (thermodynamic) at 2 h in data set [1] turned out to be 17 µM (≈ 78.9 µg/mL). Also, the IC50 in data set [2] was 2500 to 5000 nM.
In data set [1], `CC[C@H](C)[C@H](NC(=O)[C@H](CC(C)C)NC(=O)[C@H](CC(=O)O)NC(=O)[C@H](CO)NC(=O)[C@@H](NC(=O)[C@H](CCCNC(=N)N)NC(=O)[C@H](CCSC)NC(=O)[C@H](CO)NC(=O)[C@H](C)NC(=O)[C@H](CCC(=O)O)NC(=O)C(C)(C)NC(=O)[C@H](Cc1c[nH]cn1)NC(=O)CNC(=O)[C@H](CC(C)C)NC(=O)[C@H](CCC(=O)O)NC(=O)[C@H](CC(=O)O)NC(=O)[C@H](CC(C)C)NC(=O)[C@H](CC(C)C)NC(=O)[C@H](CCCNC(=N)N)NC(=O)[C@H](CCSC)NC(=O)[C@@H](NC(=O)[C@H](CCC(=O)O)NC(=O)[C@H](Cc1ccc(O)cc1)NC(=O)[C@@H](NC(=O)[C@H](CCCCN)NC(=O)[C@H](CCC(N)=O)NC(=O)[C@H](CC(C)C)NC(=O)[C@@H](NC(=O)[C@H](Cc1c[nH]c2ccccc12)NC(=O)[C@H](CCC(=O)O)NC(=O)[C@H](CCCCN)NC(=O)[C@@H](N)CC(=O)O)[C@@H](C)CC)[C@@H](C)CC)[C@@H](C)CC)C(C)C)C(=O)N[C@@H](Cc1ccc(O)cc1)C(=O)N[C@@H](CCC(=O)O)C(=O)N[C@@H](Cc1ccccc1)C(=O)N[C@@H](CCSC)C(=O)N[C@@H](CCCCN)C(=O)N[C@@H](CCCCN)C(N)=O` [SIH-2] (H-DKEWILQKIYEIMRLLDELGH[Aib]EASMRVSDLIYEFMKK-NH2) came in with a thermodynamic solubility at 2 h of 32 µM (≈ 149 µg/mL). Also, the IC50 in data set [2] was 1250 to 2500 nM.
Turning to `CC[C@H](C)[C@H](NC(=O)[C@H](CC(C)C)NC(=O)[C@H](CC(=O)O)NC(=O)[C@H](CO)NC(=O)[C@@H](NC(=O)[C@H](CCCNC(=N)N)NC(=O)[C@H](CCSC)NC(=O)[C@H](CO)NC(=O)[C@H](C)NC(=O)[C@H](CCC(=O)O)NC(=O)C(C)(C)NC(=O)[C@H](Cc1c[nH]cn1)NC(=O)[C@@H](C)NC(=O)[C@H](CC(C)C)NC(=O)[C@H](CCC(=O)O)NC(=O)[C@H](CC(=O)O)NC(=O)[C@H](CC(C)C)NC(=O)[C@H](CC(C)C)NC(=O)[C@H](CCCNC(=N)N)NC(=O)[C@H](CCSC)NC(=O)[C@@H](NC(=O)[C@H](CCC(=O)O)NC(=O)[C@H](Cc1ccc(O)cc1)NC(=O)[C@@H](NC(=O)[C@H](CCCCN)NC(=O)[C@H](CCC(N)=O)NC(=O)[C@H](CC(C)C)NC(=O)[C@@H](NC(=O)[C@H](Cc1c[nH]c2ccccc12)NC(=O)[C@H](CCC(=O)O)NC(=O)[C@H](CCCCN)NC(=O)[C@@H](N)CC(=O)O)[C@@H](C)CC)[C@@H](C)CC)[C@@H](C)CC)C(C)C)C(=O)N[C@@H](Cc1ccc(O)cc1)C(=O)N[C@@H](CCC(=O)O)C(=O)N[C@@H](Cc1ccccc1)C(=O)N[C@@H](CCSC)C(=O)N[C@@H](CCCCN)C(=O)N[C@@H](CCCCN)C(N)=O` [SIH-3] (H-DKEWILQKIYEIMRLLDEL[dA]H[Aib]EASMRVSDLIYEFMKK-NH2), the thermodynamic solubility at 2 h in data set [1] came out at 95 µM (≈ 444 µg/mL). In data set [2], this compound had an IC50 of 125 to 250 nM.
Regarding `CC[C@H](C)[C@H](NC(=O)[C@H](CC(C)C)NC(=O)[C@H](CC(=O)O)NC(=O)[C@H](CO)NC(=O)[C@@H](NC(=O)[C@H](CCCNC(=N)N)NC(=O)[C@H](CCSC)NC(=O)[C@H](CO)NC(=O)[C@H](C)NC(=O)[C@H](CCC(=O)O)NC(=O)C(C)(C)NC(=O)[C@H](CC(=O)O)NC(=O)[C@@H](C)NC(=O)[C@H](CC(C)C)NC(=O)[C@H](CCC(=O)O)NC(=O)[C@H](CC(=O)O)NC(=O)[C@H](CC(C)C)NC(=O)[C@H](CC(C)C)NC(=O)[C@H](CCCNC(=N)N)NC(=O)[C@H](CCSC)NC(=O)[C@@H](NC(=O)[C@H](CCC(=O)O)NC(=O)[C@H](Cc1ccc(F)c(F)c1)NC(=O)[C@@H](NC(=O)[C@H](CCCCN)NC(=O)[C@H](CCC(N)=O)NC(=O)[C@H](CC(C)C)NC(=O)[C@@H](NC(=O)[C@H](Cc1c[nH]c2ccccc12)NC(=O)[C@H](CCC(=O)O)NC(=O)[C@H](CCCCN)NC(=O)[C@@H](N)CC(=O)O)[C@@H](C)CC)[C@@H](C)CC)[C@@H](C)CC)C(C)C)C(=O)N[C@@H](Cc1ccc(O)cc1)C(=O)N[C@@H](CCC(=O)O)C(=O)N[C@@H](Cc1ccccc1)C(=O)N[C@@H](CCSC)C(=O)N[C@@H](CCCCN)C(=O)N[C@@H](CCCCN)C(N)=O` [SIH-7] (H-DKEWILQKI[Phe(3,4-F2)]EIMRLLDEL[dA]D[Aib]EASMRVSDLIYEFMKK-NH2), the dissociation constant (Kd) on SARS-CoV-2 RBD is 2.9 nM. This compound registered an IC50 in data set [2] of 125 to 250 nM.
The compound `CC[C@H](C)[C@H](NC(=O)[C@H](CC(C)C)NC(=O)[C@H](CC(=O)O)NC(=O)[C@H](CO)NC(=O)[C@@H](NC(=O)[C@H](CCCNC(=N)N)NC(=O)[C@H](CCSC)NC(=O)[C@H](CO)NC(=O)[C@H](C)NC(=O)[C@H](CCC(=O)O)NC(=O)C(C)(C)NC(=O)[C@H](CC(=O)O)NC(=O)[C@@H](C)NC(=O)[C@H](CC(C)C)NC(=O)[C@H](CCC(=O)O)NC(=O)[C@H](CC(=O)O)NC(=O)[C@H](CC(C)C)NC(=O)[C@H](CC(C)C)NC(=O)[C@H](CCCNC(=N)N)NC(=O)[C@H](CCSC)NC(=O)[C@@H](NC(=O)[C@H](CCC(=O)O)NC(=O)[C@H](Cc1ccc(F)c(F)c1)NC(=O)[C@@H](NC(=O)[C@H](CCCCN)NC(=O)[C@H](CCC(N)=O)NC(=O)[C@H](CC(C)C)NC(=O)[C@@H](NC(=O)[C@H](Cc1c[nH]c2ccccc12)NC(=O)[C@H](CCC(=O)O)NC(=O)[C@H](CCCCN)NC(=O)[C@@H](N)CC(=O)O)[C@@H](C)CC)[C@@H](C)CC)[C@@H](C)CC)C(C)C)C(=O)N[C@@H](Cc1ccc(O)cc1)C(=O)N[C@@H](CCC(=O)O)C(=O)N[C@@H](CC1CCCCC1)C(=O)N[C@@H](CCSC)C(=O)N[C@@H](CCCCN)C(=O)N[C@@H](CCCCN)C(N)=O` [SIH-13] (H-DKEWILQKI[Phe(3,4-F2)]EIMRLLDEL[dA]D[Aib]EASMRVSDLIYE[Cha]MKK-NH2) gave a Kd at SARS-CoV-2 RBD of 1.6 nM. The compound also showed an IC50 in data set [2] of 125 to 250 nM.
In the case of `CC[C@H](C)[C@H](NC(=O)[C@H](C)NC(=O)[C@H](CC(=O)O)NC(=O)[C@H](CO)NC(=O)[C@@H](NC(=O)[C@H](CCCNC(=N)N)NC(=O)[C@H](CCSC)NC(=O)[C@H](CO)NC(=O)[C@H](C)NC(=O)[C@H](CCC(=O)O)NC(=O)C(C)(C)NC(=O)[C@H](CC(=O)O)NC(=O)[C@@H](C)NC(=O)[C@H](CC(C)C)NC(=O)[C@H](CCC(=O)O)NC(=O)[C@H](CC(=O)O)NC(=O)[C@H](CC(C)C)NC(=O)[C@H](CC(C)C)NC(=O)[C@H](CCCNC(=N)N)NC(=O)[C@H](CCSC)NC(=O)[C@H](C)NC(=O)[C@H](CCC(=O)O)NC(=O)[C@H](Cc1ccc(O)cc1)NC(=O)[C@@H](NC(=O)[C@H](CCCCN)NC(=O)[C@H](CCC(N)=O)NC(=O)[C@H](CC(C)C)NC(=O)[C@@H](NC(=O)[C@H](Cc1c[nH]c2ccccc12)NC(=O)[C@H](CCC(=O)O)NC(=O)[C@H](CCCCN)NC(=O)[C@@H](N)CC(=O)O)[C@@H](C)CC)[C@@H](C)CC)C(C)C)C(=O)N[C@@H](Cc1ccc(O)cc1)C(=O)N[C@@H](CCC(=O)O)C(=O)N[C@@H](Cc1ccccc1)C(=O)N[C@@H](CCSC)C(=O)N[C@@H](CCCCN)C(=O)N[C@@H](CCCCN)C(N)=O` [SIH-14] (H-DKEWILQKIYEAMRLLDEL[dA]D[Aib]EASMRVSDAIYEFMKK-NH2), at SARS-CoV-2 RBD, the equilibrium dissociation constant (Kd) turned out to be 3 nM and the kon was 90000 M⁻¹ s⁻¹. The compound also yielded an IC50 in data set [2] of 250 to 500 nM.
As to `CC[C@H](C)[C@H](NC(=O)[C@H](CCC(=O)O)NC(=O)[C@H](CC(=O)O)NC(=O)[C@H](CO)NC(=O)[C@@H](NC(=O)[C@H](CCCNC(=N)N)NC(=O)[C@H](CCSC)NC(=O)[C@H](CO)NC(=O)[C@H](C)NC(=O)[C@H](CCC(=O)O)NC(=O)C(C)(C)NC(=O)[C@H](CC(=O)O)NC(=O)[C@@H](C)NC(=O)[C@H](CC(C)C)NC(=O)[C@H](CCC(=O)O)NC(=O)[C@H](CC(=O)O)NC(=O)[C@H](CC(C)C)NC(=O)[C@H](CC(C)C)NC(=O)[C@H](CCCNC(=N)N)NC(=O)[C@H](CCSC)NC(=O)[C@H](CCC(=O)O)NC(=O)[C@H](CCC(=O)O)NC(=O)[C@H](Cc1ccc(O)cc1)NC(=O)[C@@H](NC(=O)[C@H](CCCCN)NC(=O)[C@H](CCC(N)=O)NC(=O)[C@H](CC(C)C)NC(=O)[C@@H](NC(=O)[C@H](Cc1c[nH]c2ccccc12)NC(=O)[C@H](CCC(=O)O)NC(=O)[C@H](CCCCN)NC(=O)[C@@H](N)CC(=O)O)[C@@H](C)CC)[C@@H](C)CC)C(C)C)C(=O)N[C@@H](Cc1ccc(O)cc1)C(=O)N[C@@H](CCC(=O)O)C(=O)N[C@@H](Cc1ccccc1)C(=O)N[C@@H](CCSC)C(=O)N[C@@H](CCCCN)C(=O)N[C@@H](CCCCN)C(N)=O` [SIH-15] (H-DKEWILQKIYEEMRLLDEL[dA]D[Aib]EASMRVSDEIYEFMKK-NH2), on SARS-CoV-2 RBD, the Kd came to 1.7 nM and the kon came out at 150000 M⁻¹ s⁻¹. Moreover, the IC50 in data set [2] was in the range of 250 to 500 nM.
